Source: patent US20070141171A1, “NOVEL COMPOSITION AND METHOD FOR THE TREATMENT OF HYPERTENSION” (priority 2003, published 2007)

Experiments:
Type in all cases: cell-based
[1] = tested on: cultured human aortic smooth muscle cells (SMC); assay: SMC collagen gel contraction stimulated by angiotensin II; settings: for activity as inhibitor of Ang II-stimulated gel contraction: summary statement; for rank of effectiveness on ATII-induced gel contraction (catechins) / rank of effectiveness on ATII (polyphenols): at 30; for effect on ATII-induced gel: 1-4 mM, individual or comb; for GA, % vs 100% control / increase in gel area (GA) vs ATII: 30 mcM; for GA, % vs 100% control: ATII alone 76%
Description: Plant-derived bioflavonoids have been recognized to support arterial wall structural integrity and interfere with a variety of pro-atherosclerotic stimuli. We tested whether bioflavonoids have an effect on the contractile activity of cultured human aortic smooth muscle cells (SMC) embedded in a three-dimensional type I collagen (1 mg/mL) matrix. […]
The following starting material and equipment were used. • 1. Cultured vascular smooth muscle cells (SMC) isolated from human aorta.
Cells are used from 4th to 8th passages. • 2. Human collagen type I. • 3. Angiotensin II. • 4. Epican Forte (composition shown in Table 1, available from Matthias Rath, Inc., and all ingredients commercially available) • 5. Epigallocatechin gallate (EGCG) • 6. Quercetin (chemical structure is well defined) • 7. Cell culture medium (DMEM) • 8. 24 well plastic cell culture plate pre-incubated with 2 mg/ml bovine serum albumin. • 9. Digital camera • 10. Digital image analyzing software (Scion Corporation). • 11. Zymography gel electrophoresis assay (Novorex Corp).
Confluent culture of SMC and suspended from culture flask by trypsinization and washed with phosphate-buffered saline (PBS) from serum-containing medium. Cell concentration in suspension was brought to 500,000 cell per mL in serum-free DMEM. Cell suspension was then mixed 1:1 with ice-cold 2 mg/ml collagen type I solution in PBS. Final concentration of collagen was 1 mg/mL, final cell concentration is 250,000 per mL. Collagen-SMC suspension was distributed by 300 microL to the wells of 24 well plate in such a manner to cover the entire bottom surface of the well. The plate was then incubated for one hour at 37° C. to allow gel to polymerize. 0.5 mL of experimental serum-free medium containing no additions (control), […] was added to polymerized gel, plate was then gently tapped on the side to detach gel from the bottom of plastic well, and plate was then placed to incubator with the controlled atmosphere containing 5%CO2 at 37° C. for incubation. After 24 hour incubation plate was taken from the incubator and plate image with floating gels was taken using digital camera. Gel flat surface area is measured with digital image analyzing software. Sample of cell culture media was taken for analysis of matrix metalloproteinases activity by zymography (Novorex Corp). Experiments were performed in triplicates and results are presented as a mean +/−SD.

[2] = tested on: cultured human aortic smooth muscle cells (SMC); assay: SMC collagen gel contraction stimulated by Thrombin; settings: for GA, % vs 100% control: 30 mcM, Thrombin alone 70%
[3] = tested on: cultured human aortic smooth muscle cells (SMC); assay: SMC collagen gel contraction stimulated by Angiotensin I; settings: Mar. 25, 2003; ATI 330-1000 nM alone
[4] = Mar. 25, 2003, in combination with EF

In the case of `N=C(N)NCCC[C@H](N)C(=O)O` [Arginine], the “effect on ATII-induced gel reduction” value ([1]; Mar. 20, 2003, Arginine 0.5-2 mM) is reported as “no significant effect”.
`O=C1O[C@H]([C@@H](O)CO)C(O)=C1O` [AsA, ascorbic acid] was tested, and the “activity as inhibitor of Ang II-stimulated gel contraction” value (“activity as inhibitor” for short) ([1]; 1 micromol/L Ang II, 24 hours) was “not significantly active”, the “effect on ATII GA reduction” value ([1]; Apr. 2, 2003, AsA 200 mcM) was “had no effect” and the “effect on ATII-induced gel reduction” value ([1]; Apr. 17, 2003, AsA 500 mcM alone) was “did not have effect”. The “effect on ATII-induced gel reduction” value ([1]; Apr. 17, 2003, AsA 500 mcM in combination with 10 EGCG) was “did not have effect”, the “gel reduction to % of 100% control” value ([1]; Mar. 18, 2003, ATII 1 mcM + AsA 100 mcM) was 30% and the “gel reduction to % vs 100% ATII 1 mcM” value ([1]; Mar. 20, 2003, AsA 0.5 mM + ATII) was 90%. For the same molecule, the “effect on Thrombin GA reduction” value ([2]; Apr. 2, 2003, AsA 200 mcM) was “had no effect”.
For `Oc1cc(O)c2c(c1)OC(c1ccc(O)c(O)c1)C(O)C2` (stereo not drawn) [C], the “rank of effectiveness on ATII-induced gel contraction (catechins)” value (“rank of effectiveness … (catechins)” below) ([1]; Apr. 17, 2003) was “EC=C”.
`[Ca+2]` [Ca] was tested, and the “effect on ATII-induced gel” value ([1]; Mar. 20, 2003) was “no effects”.
`O=C(O[C@@H]1Cc2c(O)cc(O)cc2O[C@@H]1c1ccc(O)c(O)c1)c1cc(O)c(O)c(O)c1` [ECG] was tested, and the “rank of effectiveness … (catechins)” value ([1]; Apr. 17, 2003) was “more effective than EC=C”.
`Oc1cc(O)c2c(c1)O[C@H](c1ccc(O)c(O)c1)[C@H](O)C2` [EC] was tested, and the “rank of effectiveness … (catechins)” value ([1]; Apr. 17, 2003) was “EC=C”.
With `O=C(O[C@@H]1Cc2c(O)cc(O)cc2O[C@@H]1c1cc(O)c(O)c(O)c1)c1cc(O)c(O)c(O)c1` [EGCG, Epigallocatechin gallate] the “activity as inhibitor” value ([1]; 1 micromol/L Ang II, 24 hours) was “most active inhibitors of gel contraction”, the “inhibition of Ang II-induced gel contraction” value ([1]; 30 micromol/L, 1 micromol/L Ang II, 24 hours) was 97% and the “GA, % vs 100% control” value ([1]; Apr. 2, 2003) was 150%. For the same molecule, the “effect on gel contraction by ATII” value ([1]; Apr. 17, 2003, EGCG 3.3-10-30 mcM) was “dose-dependently reduced gel contraction”, the “rank of effectiveness … (catechins)” value ([1]; Apr. 17, 2003) was “more effective than ECG30” and the “gel reduction to % of 100% control” value ([1]; Mar. 18, 2003, ATII 1 mcM + EGCG 15 mcM) was 30%. For the same molecule, the “GA, % vs 100% control” value ([2]; Apr. 2, 2003) was 206%.
For `O=c1c(-c2ccc(O)cc2)coc2cc(O)cc(O)c12` [Genistein], the “GA, % vs 100% control” value ([1]; Apr. 2, 2003) was 96%, the “rank of effectiveness on ATII (polyphenols)” value (“rank … (polyphenols)” below) ([1]; Apr. 17, 2003) was “Querc30=>Genist30=>Resver30=>Rutin30” and the “increase in gel area (GA) vs ATII” value ([1]; Mar. 25, 2003, alone) was 34%. For the same molecule, the “increase in gel area (GA) vs ATII” value [1, 4] was 11% and the “GA, % vs 100% control” value ([2]; Apr. 2, 2003) was 78%.
For `NCCCC[C@H](N)C(=O)O` [Lysine], the “effect on ATII GA reduction” value ([1]; Mar. 28, 2003, 0.25-1 mM) was “did not effect”.
For `[Mg+2]` [Mg], the “effect on ATII-induced gel” value ([1]; Mar. 20, 2003) was “no effects”.
With `CC(=O)N[C@@H](CS)C(=O)O` [NAC, N-Acetyl Cystein] the “GA returned to % of control” value ([1]; Mar. 26, 2003, NAC 2 mcM, ATII 1 mcM (21% reduction)) was 100% and the “effect on ATII GA reduction” value ([1]; Mar. 26, 2003, NAC higher concentration up to 60 mcM) was “did not have any effect”.
In the case of `O=C(O)[C@@H]1CCCN1` [Proline], the “effect on ATII GA reduction” value ([1]; Mar. 28, 2003, 0.25-1 mM) is reported as “did not effect”.
`O=c1c(O)c(-c2ccc(O)c(O)c2)oc2cc(O)cc(O)c12` [Quercetin] was tested, and the “activity as inhibitor” value ([1]; 1 micromol/L Ang II, 24 hours) was “most active inhibitors of gel contraction”, the “GA, % vs 100% control” value ([1]; Apr. 2, 2003) was 167% and the “rank … (polyphenols)” value ([1]; Apr. 17, 2003) was “Querc30=>Genist30=>Resver30=>Rutin30”. For the same molecule, the inhibition at 30 µM ([1]; Homo sapiens, 30 micromol/L, 1 micromol/L Ang II, 24 hours, read-out: inhibition of Ang II-induced gel contraction) was 120% and the “GA, % vs 100% control” value ([2]; Apr. 2, 2003) was 133%.
In the case of `Oc1ccc(C=Cc2cc(O)cc(O)c2)cc1` [Resveratrol], the “GA, % vs 100% control” value ([1]; Apr. 2, 2003) is reported as 88%, the “rank … (polyphenols)” value ([1]; Apr. 17, 2003) is reported as “Querc30=>Genist30=>Resver30=>Rutin30” and the “effect on gel area vs ATII” value ([1]; Mar. 25, 2003, 15 mcM, alone) is reported as “no effect”. For the same molecule, the “effect on EF effect” value ([1]; Mar. 25, 2003, 15 mcM, with EF) was “no effect”, the “increase in gel area (GA) vs ATII” value ([1]; Mar. 25, 2003, alone) was 45% and the “increase in gel area (GA) vs ATII” value [1, 4] was 104%. For the same molecule, the “GA, % vs 100% control” value ([2]; Apr. 2, 2003) was 106%.
`C[C@@H]1O[C@@H](OC[C@H]2O[C@@H](Oc3c(-c4ccc(O)c(O)c4)oc4cc(O)cc(O)c4c3=O)[C@H](O)[C@@H](O)[C@@H]2O)[C@H](O)[C@H](O)[C@H]1O` [Rutin] was tested, and the “GA, % vs 100% control” value ([1]; Apr. 2, 2003) was 80% and the “GA, % vs 100% control” value ([2]; Apr. 2, 2003) was 56%.
With “Angiotensin I (DRVYIHPFHL; Angiotensin-1; UniProt P01019 25-34, looked up) [ATI, stimulus of gel contraction]” the gel reduction [3] was “gel reduction at 1000 nM only”.
For “Angiotensin II (DRVYIHPF; Angiotensin-2; UniProt P01019 25-32, looked up) [ATII, stimulus of gel contraction, reference compound]”, the “GA reduced by” value ([1]; Apr. 2, 2003, ATII alone at 1 mcM) was 24%, the “effect on gel contraction” value ([1]; Mar. 7, 2003, ATII 1 mcM alone) was “no effects” and the “gel reduction to % of Control 100%” value ([1]; Mar. 11, 2003, ATII 1 mcM alone) was 59%. For the same molecule, the “gel reduction to % of 100% control” value ([1]; Mar. 18, 2003, ATII 1 mcM alone) was 23%, the “gel reduction to % of 100% control” value ([1]; Mar. 20, 2003, ATII 1 mcM alone) was 81% and the reduction in gel ([1]; Mar. 25, 2003, ATII 110-330-1000 nM alone) was “dose dependent reduction in gel”. It also gave a GA reduction ([1]; Mar. 26, 2003, ATII 1 mcM alone) of 21%.
Thrombin [reference compound] was tested, and the “GA reduced by” value ([2]; Apr. 2, 2003, Thrombin alone at 1 mcM) was 30%, the “effect on gel contraction” value ([2]; Mar. 7, 2003, Thrombin 0.1 U/mL alone) was “no effects” and the “gel reduced by” value ([2]; Mar. 10, 2003, Thrombin 0.1 U/mL alone, 9% in control) was 58%.
